Assay results reported in ChEMBL document CHEMBL5512617, “Tackling Influenza A virus by M2 ion channel blockers: Latest progress and limitations” (Eur J Med Chem, 2024).

Columns and labels:
[1] = biological target: Matrix protein 2 (Influenza A virus (A/Udorn/307/1972(H3N2)), UniProt P0DOF8, V27A)
[2] = system: Influenza A virus; conditions: mdck

SMILES	IC50 [1] [µM]	EC50 [2] [µM]
NCC1CCC2(CCCCC2)CC1	31.1	–
C1CCC2(CC1)CCNCC2	> 200	–
NC1CCCC2(CCCCCC2)CC1 (stereo unspecified)	11.3	–
NC1CCC2(CCCCCC2)CC1	28.1	–
NC1CCCC2(CCCCC2)CC1 (stereo unspecified)	68.1	–
NC1CSC2(SC1)C1CC3CC(C1)CC2C3 (stereo unspecified)	0.4	1
CC(N)C1CCC2(CCCCC2)CC1 (stereo unspecified)	25.2	–
NC1CCC2(CC1)C1CC3CC(C1)CC2C3 (stereo unspecified)	–	1.8
N=C(N)NC1CCC2(CC1)C1CC3CC(C1)CC2C3 (stereo unspecified)	0.5	> 30
